Measured values: patent US11382328B2, “Rapid drug discovery methods for pathogen inactivation” (priority 2019, dated 2022)

Tested on: E. coli strain W3110
Assay: Synergy assays: Biolog chemical sensitivity panels with Group IB metal, coefficient of drug interaction (CDI) from relative growth
Assay type: cell-based
Settings: for CDI (coefficient of drug interaction) / CDI (coefficient of drug interaction), silver + biocide: E. coli; for CDI (coefficient of drug interaction), gold + biocide: Gold (μM)
[1] = first of 3 gold concentrations, biocide concentration 4 of 4
[2] = second of 3 gold concentrations, biocide concentration 4 of 4
[3] = third of 3 gold concentrations, biocide concentration 4 of 4
[4] = Silver 0.5 μM, biocide concentration 3 of 4
[5] = Silver 0.5 μM, biocide concentration 4 of 4
[6] = Silver 1.0 μM, biocide concentration 3 of 4
[7] = Silver 1.0 μM, biocide concentration 4 of 4
[8] = Silver 5.0 μM, biocide concentration 3 of 4
[9] = Silver 5.0 μM, biocide concentration 4 of 4

## N.N.N.N.N.N.N.N.N.N.N.N.N.N.[Cl-].[Cl-].[Cl-].[Cl-].[Cl-].[Cl-].[O-2].[O-2].[Ru+3].[Ru+3].[Ru+4] [ruthenium red]
Copper (mM), 1st of 3 copper concentrations (head line not shown), biocide concentration 1 of 4
  CDI (coefficient of drug interaction): 0.73
Copper (mM), 1st of 3 copper concentrations (head line not shown), biocide concentration 2 of 4
  CDI (coefficient of drug interaction): 0.60
Copper (mM), 1st of 3 copper concentrations (head line not shown), biocide concentration 3 of 4
  CDI (coefficient of drug interaction): 0.51
Copper (mM), 1st of 3 copper concentrations (head line not shown), biocide concentration 4 of 4
  CDI (coefficient of drug interaction): 0.50
Copper (mM), 2nd of 3 copper concentrations (head line not shown), biocide concentration 1 of 4
  CDI (coefficient of drug interaction): 0.52
Copper (mM), 2nd of 3 copper concentrations (head line not shown), biocide concentration 2 of 4
  CDI (coefficient of drug interaction): 0.47
Copper (mM), 2nd of 3 copper concentrations (head line not shown), biocide concentration 3 of 4
  CDI (coefficient of drug interaction): 0.37
Copper (mM), 2nd of 3 copper concentrations (head line not shown), biocide concentration 4 of 4
  CDI (coefficient of drug interaction): 0.30
Copper (mM), 3rd of 3 copper concentrations (head line not shown), biocide concentration 1 of 4
  CDI (coefficient of drug interaction): 0.45
Copper (mM), 3rd of 3 copper concentrations (head line not shown), biocide concentration 2 of 4
  CDI (coefficient of drug interaction): 0.38
Copper (mM), 3rd of 3 copper concentrations (head line not shown), biocide concentration 3 of 4
  CDI (coefficient of drug interaction): 0.33
Copper (mM), 3rd of 3 copper concentrations (head line not shown), biocide concentration 4 of 4
  CDI (coefficient of drug interaction): 0.29
First of 3 gold concentrations, biocide concentration 1 of 4
  CDI (coefficient of drug interaction), gold + biocide: 1.04
First of 3 gold concentrations, biocide concentration 2 of 4
  CDI (coefficient of drug interaction), gold + biocide: 0.94
First of 3 gold concentrations, biocide concentration 3 of 4
  CDI (coefficient of drug interaction), gold + biocide: 1.05
[1]
  CDI (coefficient of drug interaction), gold + biocide: 1.06
Second of 3 gold concentrations, biocide concentration 1 of 4
  CDI (coefficient of drug interaction), gold + biocide: 1.03
Second of 3 gold concentrations, biocide concentration 2 of 4
  CDI (coefficient of drug interaction), gold + biocide: 1.02
Second of 3 gold concentrations, biocide concentration 3 of 4
  CDI (coefficient of drug interaction), gold + biocide: 1.14
[2]
  CDI (coefficient of drug interaction), gold + biocide: 1.07
Third of 3 gold concentrations, biocide concentration 1 of 4
  CDI (coefficient of drug interaction), gold + biocide: 1.08
Third of 3 gold concentrations, biocide concentration 2 of 4
  CDI (coefficient of drug interaction), gold + biocide: 1.05
Third of 3 gold concentrations, biocide concentration 3 of 4
  CDI (coefficient of drug interaction), gold + biocide: 1.13
[3]
  CDI (coefficient of drug interaction), gold + biocide: 1.09
Silver 0.5 μM, biocide concentration 1 of 4
  CDI: 0.78
Silver 0.5 μM, biocide concentration 2 of 4
  CDI: 0.79
[4]
  CDI: 0.75
[5]
  CDI: 0.69
Silver 1.0 μM, biocide concentration 1 of 4
  CDI: 0.87
Silver 1.0 μM, biocide concentration 2 of 4
  CDI: 0.89
[6]
  CDI: 0.83
[7]
  CDI: 0.34
Silver 5.0 μM, biocide concentration 1 of 4
  CDI: 0.68
Silver 5.0 μM, biocide concentration 2 of 4
  CDI: 0.34
[8]
  CDI: 0.38
[9]
  CDI: 0.19

## CCn1cc(C(=O)O)c(=O)c2cc(F)c(N3CCNCC3)cc21 [norfloxacin]
Gold 50 μM, biocide concentration 4 of 4
  CDI (coefficient of drug interaction): Tox

## NNC(N)=O [semicarbazide]
Copper (mM) section, 2nd of 3 copper concentrations (value not shown), 4th of four biocide concentrations
  CDI (coefficient of drug interaction), copper mixed with biocide: Tox
Silver 0.5 μM, 3rd of four biocide concentrations
  CDI (coefficient of drug interaction), silver + biocide: Tox
Silver 0.5 μM, 4th of four biocide concentrations
  CDI (coefficient of drug interaction), silver + biocide: Tox
Silver 1.0 μM, 3rd of four biocide concentrations
  CDI (coefficient of drug interaction), silver + biocide: Tox
Silver 1.0 μM, 4th of four biocide concentrations
  CDI (coefficient of drug interaction), silver + biocide: Tox
Silver 5.0 μM, 3rd of four biocide concentrations
  CDI (coefficient of drug interaction), silver + biocide: Tox
Silver 5.0 μM, 4th of four biocide concentrations
  CDI (coefficient of drug interaction), silver + biocide: Tox

## CCN1CCN(C(=O)N[C@@H](C(=O)N[C@@H]2C(=O)N3[C@@H]2SC(C)(C)[C@@H]3C(=O)O)c2ccccc2)C(=O)C1=O [piperacillin]
[1]
  CDI (coefficient of drug interaction), gold + biocide: Tox
[2]
  CDI (coefficient of drug interaction), gold + biocide: Tox
[3]
  CDI (coefficient of drug interaction), gold + biocide: Tox
[4]
  CDI: Tox
[5]
  CDI: Tox
[6]
  CDI: Tox
[7]
  CDI: Tox
[8]
  CDI: Tox
[9]
  CDI: Tox
